pIC50, pKi: −log10 of the molar value.
What was measured:
Beta-secretase 1 [1] = target: T1, Beta-secretase 1 (Homo sapiens, UniProt P56817); test: Inhibition of human Beta-secretase 1
Beta-secretase 1 [2] = target: T1, Beta-secretase 1; test: Inhibitory activity against recombinant human Beta-secretase 1

T1 sequence (P56817 whole entry): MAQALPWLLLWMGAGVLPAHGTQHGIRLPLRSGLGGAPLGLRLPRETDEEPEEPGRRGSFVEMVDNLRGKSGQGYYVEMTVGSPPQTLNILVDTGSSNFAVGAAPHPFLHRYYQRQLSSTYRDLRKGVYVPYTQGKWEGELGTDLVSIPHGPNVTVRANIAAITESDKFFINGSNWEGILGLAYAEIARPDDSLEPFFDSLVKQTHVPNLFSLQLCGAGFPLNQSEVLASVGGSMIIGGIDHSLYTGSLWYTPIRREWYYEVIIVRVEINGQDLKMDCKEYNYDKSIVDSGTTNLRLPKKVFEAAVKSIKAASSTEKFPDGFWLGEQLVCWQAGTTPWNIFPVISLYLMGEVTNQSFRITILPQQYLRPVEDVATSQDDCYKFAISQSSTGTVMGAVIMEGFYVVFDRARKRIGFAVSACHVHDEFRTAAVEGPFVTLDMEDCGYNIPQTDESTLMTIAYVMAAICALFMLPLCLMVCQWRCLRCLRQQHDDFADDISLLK

SMILES | pIC50 (Beta-secretase 1 [1]) | pKi (Beta-secretase 1 [2])
O=C(O[C@H]1Cc2c(O)cc(O)cc2O[C@H]1c1ccc(O)c(O)c1)c1cc(O)c(O)c(O)c1 | 5.35 | 5.28
O=C(OC[C@@H]1O[C@H](OC(=O)c2cc(O)c(O)c(O)c2)[C@@H](OC(=O)c2cc(O)c(O)c(O)c2)[C@H](OC(=O)c2cc(O)c(O)c(O)c2)[C@H]1OC(=O)c1cc(O)c(O)c(O)c1)c1cc(O)c(O)c(O)c1 | < 3.80 | –
Oc1cc(O)c2c(c1)O[C@@H](c1cc(O)c(O)c(O)c1)[C@@H](O)C2 | 5.62 | –
O=C(O[C@@H]1O[C@@H]2COC(=O)c3cc(O)c(O)c(O)c3-c3c(cc(O)c(O)c3O)C(=O)OO[C@H]([C@H]1O)[C@@H]2O)c1cc(O)c(O)c(O)c1 | < 3.80 | –
O=C(O[C@@H]1Cc2c(O)cc(O)cc2O[C@H]1c1ccc(O)c(O)c1)c1cc(O)c(O)c(O)c1 [(-)-CATECHINGALLATE] | 5.22 | –
Oc1cc(O)c2c(c1)O[C@H](c1cc(O)c(O)c(O)c1)[C@@H](O)C2 [GALLOCATECHIN] | 5.60 | –

— ChEMBL document CHEMBL1136344, “Green tea catechins as a BACE1 (beta-secretase) inhibitor” (Bioorg Med Chem Lett, 2003)
